Measured values reported in patent US20140318000A1, “COMBINING ALGAE CULTIVATION AND CO2 CAPTURE” (Nederlandse Organisatie voor …, priority 2011, published 2014).
“Also recorded” adds a separate entry of the source.

Key:
[1] = CO2 uptake in absorbent liquid in a sealed beaker fed continuously with flue gas, online CO2 analyser; type: physicochemical; conditions: 0.2 M taurine, 4 l liquid, flue gas 7.2% CO2, total period 100 000 s
Experimental: CO2 is fed continuously to a sealed beaker with water and with an absorp absorbent liquid (0.2 M taurine). The height of the liquids is 30 cm the total amount of liquids is 4 l. For water the uptake, that is the amount of CO2, in %, leaving the beaker as function of the time, is given for two flow rates. […] In FIG. 4, the CO2 concentration, in %, leaving the beaker as function of time is depicted. Experiments were conducted in a sealed beaker, where flue gas was fed, and where the gaseous stream leaving the beaker was analysed with an online CO2 analyser. The composition of the ‘flue gas’ was 7.2% CO2 and […].

Spirulina platensis = assay: Growth of Spirulina platensis (dry algae density) in growth medium combined with absorbent liquid loaded with CO2; type: cell-based
Experimental: For the absorbent liquids standard procedures were used to prepare the solvent solutions. For the absorbent liquids stock solutions with a molarity of 2 M were prepared. To test the growth, the molarities of the solutions were adjusted at the start of the experiments by adding a given amount of the aqueous growth medium.
The growth of the algae was tested with different solutions composed from different ratios (volume based) of growth media and absorbent liquid.
Subsequently, a number of dedicated experiments were performed were a specific algae (and growth medium) was combined with a given absorbent liquid in the presence of CO2. The CO2 was added in two different ways.
In the first way, so-called batch operation, the algae, growth medium, and the absorbent liquid (with a given molarity) were prepared in a beaker (of about 1 l) or reactor (available with a volume of 10 l and 20 l) and the CO2 was bubbled through for at least 12 h to saturate the solution with a high flow rate (in the order of 200 ml/min).
During the experiments the pH was measured on a daily basis.
At given times a small sample was taken from the beaker (or reactor) to analyse the micro-algae. The volume of the sample was determined, the sample was then dried in an oven, and subsequently the mass determined (by weighing) to obtain the dry algae density (g/l).
For various tests, Arthrospira (Spirulina) platensis was used. The Spirulina strain is kept in Schlösser's medium (Schlösser, Berichten der Deutchen Botanischen Gesellschaft 1982, 95, 181-276). Schlösser's medium contained per litre: 13.6 g of NaHCO3, 4.03 g of Na2CO3, 0.5 g of K2HPO4, 2.5 g of NaNO3, 1 g of K2SO4, 1 g of NaCl, 0.2 g of MgSO4.7H2O, 0.04 g of CaCl2.2H2O, 0.01 g of FeSO4.7H2O, and 0.08 g of EDTA (ethylenediaminetetraacetic). Some micronutrients are added as well.
The overall composition based on 1 l of total solution was obtained by combining: 400 ml of the growth medium, for example the Schlösser's medium, with 400 ml of an aqueous amino acids salts, with as ‘counter ion’ potassium hydroxide, solution, where the amount of amino acid was varied between 0.1 M and 1 M. Subsequently, 200 ml of algae solution was added.

NCCS(=O)(=O)O [taurine, 2-aminoethanesulphonic acid]
CO2 leaving the beaker [1]: no CO2 was measured; also recorded: almost no CO2 is leaving the beaker | dry algae density (Spirulina platensis; Spirulina platensis, 0.1 M taurine as absorbent liquid): about 2 g/l | dry algae density, initial constant level (Spirulina platensis; Spirulina platensis, 0.2 M taurine, solution saturated with CO2 at start, before reloading at day 20): about 1.4 g/l | final dry algae density (Spirulina platensis; Spirulina, 0.2 M taurine initially saturated with CO2, after about 15 days): 2.1 g/L | dry algae density after growth period (Spirulina platensis; Spirulina, 0.2 M taurine initially saturated with CO2, increase from 0.25 g/l in about 5 days after start-up): 1.7 g/L
